From patent US9782346B2, “Biodegradable ocular implant” (Nanyang Technological University, priority 2010, dated 2017)

Assays:
[1] = Sustained drug release from PLC films / sandwich constructions; assay type: physicochemical
rabbit eyes = conditions: in vivo
Procedure: We obtained approval from the SingHealth Institute Animal Care and Use Committee (IACUC Singhealth Approval Number 2009/SHS/478) and all procedures were performed in accordance with the ARVO Statement for the Use of Animals in Ophthalmic and Vision Research. Nine New Zealand white rabbits (18 eyes) were used aged 4-6 months old with a weight range of 2-2.5 kg each. Each rabbit was anesthetized with intraperitoneal injection of ketamine hydrochloride (35-50 mg/kg) and Xylazil (5-10 mg/kg). After the animal had been adequately anaesthetized, the eye was cleaned with povidone-iodine (10%) and draped with sterile cloth. […]
Visual inspection of the operated eyes was conducted daily following surgery. […] All clinical and ocular observations were recorded on a chart. The test animals were also monitored for any gross changes such as eye discharge, squinting and, ocular discomfort. […]
Anterior segment photographs and anterior segment optical coherence tomography (AS-OCT, Visante OCT, Carl Zeiss Meditec Inc., Germany) of the implanted eyes was performed at monthly intervals. […] The site of conjunctival elevation from the microfilm was determined by the location of a light reflex over the conjunctiva during image acquisition. In cases where the light reflex was absent, the observer manually assessed the surface of the microfilm to select a radius that contained elevation. […]

CC(C)OC(=O)CCC/C=C\C[C@@H]1[C@@H](CC[C@@H](O)CCc2ccccc2)[C@H](O)C[C@@H]1O [Latanoprost]
Duration of delivery ([1]; from PLC films): 10 days

C[C@]12C=CC(=O)C=C1CC[C@@H]1[C@@H]2[C@@H](O)C[C@@]2(C)[C@H]1CC[C@]2(O)C(=O)CO [Prednisolone]
Duration of controlled release ([1]; from PLC (70/30 copolymer of PLA and PCL)): 100 days

CCCC(CCC)C(=O)O [valproic acid]
Duration of controlled release ([1]; 1% and 2% sandwich constructions (multi-layered implant)): 20 days

Poly(d,l-lactide-co-e-caprolactone) [PLC70/30]
mean increase in vascularity grade (rabbit eyes): 15±0.6% | mean percent increase in ocular score (rabbit eyes): 15±0.6%
